Assays:
[1] = system: Botrytis cinerea; experiment: Botrytis cinerea (gray mold) mycelial radial growth on potato dextrose agar; type: cell-based; details: 168 h, 22° C., seven days, read-out: control compared to the untreated check
Procedure, shortened: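 Compounds in 0.3% DMSO were mixed into potato dextrose agar, and plates were seeded with 5 mm mycelial discs from actively growing virulent culture. After seven days at 22 °C and 90% relative humidity, radial growth was measured relative to untreated control.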

[2] = system: Colletotrichum capsici; experiment: Colletotrichum capsici (anthracnose) mycelial radial growth on potato dextrose agar; type: cell-based; details: Colletotrichum truncatum, 168 h, 25° C., seven days, read-out: control compared to the untreated check
Procedure, shortened: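 Compounds in 0.3% DMSO were mixed into potato dextrose agar, and each plate was seeded with a 5 mm mycelial disc from an actively growing culture. Plates were incubated at 25° C and 60% relative humidity for seven days. Radial growth was compared with untreated control.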

[3] = system: Phytophthora infestans; experiment: microbe, parasite or virus in culture; type: cell-based; details: 168 h, read-out: control compared to the untreated check
[4] = system: Parastagonospora nodorum; experiment: Parastagonospora nodorum (PARANO) spore growth inhibition in liquid medium, 96-well microtiter plate, OD 600; type: cell-based; details: spore suspension in PDB liquid medium, 18° C., 5-6 days, OD at 600, read-out: control compared to the untreated check
Procedure, shortened: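 Read-out is percent growth inhibition from OD at 600 after 5-6 days at 18° C. Compounds, dissolved in DMSO, were diluted in potato dextrose broth and combined in equal volume with a 10^5 spores/ml suspension of PARANO.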

[5] = system: Venturia Inequalis; experiment: Venturia inequalis (VENTIN) spore growth inhibition in liquid medium, 96-well microtiter plate, OD 600; type: cell-based; details: spore suspension in PDB liquid medium, 18° C., 15-18 days, OD at 600, read-out: control compared to the untreated check
Procedure, shortened: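 Venturia inequalis spores (10^5 spores/ml suspension) were grown in potato dextrose broth with test compounds dissolved in DMSO, mixing equal volumes of compound solution and spore suspension. Plates were incubated at 18 °C for 15–18 days. Growth was read as OD600 and converted to percent inhibition.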

[6] = system: Botrytis cinerea; experiment: Botrytis cinerea liq. (BOTRCI) spore growth inhibition in liquid medium, 96-well microtiter plate, OD 405 nm; type: cell-based; details: spore suspension in YBA liquid medium, 22° C., 5-6 days, OD at 405 nm, read-out: control compared to the untreated check
Procedure, shortened: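 Spore suspension of B. cinerea (10^4 spores/ml) in YBA liquid medium mixed 1:1 with compound diluted from DMSO. Incubated at 22° C. for 5-6 days. Growth read as OD 405 nm; percent inhibition derived from treatment, untreated-control and blank readings.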

[7] = system: Botrytis cinerea; experiment: Botrytis cinerea test on tomato, preventive, greenhouse; type: in vivo; details: preventive spray on bean/chili plants (heading: tomato), inoculated one day after treatment, read-out: control (efficacy, disease severity) compared to the untreated check
[8] = system: Alternaria solani; experiment: Alternaria solani test in tomato, preventive, greenhouse; type: in vivo; details: preventive spray on tomato, inoculated one day after treatment, read-out: control (efficacy, disease severity) compared to the untreated check
Experimental: The respective compound was dissolved in 2% dimethyl sulfoxide/acetone and then mixed with water containing an emulsifier to the calibrated spray volume of 30 mL. Each spray solution was poured into a spray bottle for further application.
To test the preventive activity of a compound, healthy young tomato plants, raised in the greenhouse, were sprayed with the active compound preparation at the stated application rate inside the spray cabinets using hollow cone nozzles. One day after treatment, the plants were inoculated with a spore suspension containing 0.24×10^6 Alternaria solani inoculum. The inoculated plants were then kept in a greenhouse chamber at 22-24° C. temperature and 90-95% relative humidity for disease expression.
(§1) A visual assessment of the compound's performance was carried out by rating the disease severity (0 100% scale) on treated plants 3, 7, 10 and 15 days after application. Efficacy (% control) of the compound was calculated by comparing the disease rating in the treatment with the one of the untreated control. The treated plants were also assessed for plant damage by recording symptoms like necrosis, chlorosis and stunting.

[9] = system: Phytophthora infestans; experiment: whole plant or invertebrate; type: in vivo, Phytophthora infestans on tomato; details: in Solanum lycopersicum, read-out: control (efficacy, disease severity) compared to the untreated check
[10] = system: Pyricularia oryzae; experiment: microbe, parasite or virus in culture; type: cell-based; details: 168 h, read-out: control compared to the untreated check
[11] = system: Phakopsora pachyrhizi; experiment: Phakopsora pachyrhizi test on soybean, preventive, greenhouse; type: in vivo; details: preventive spray on soybean, inoculated one day after treatment, read-out: control (efficacy, disease severity) compared to the untreated check
Procedure, shortened: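 Greenhouse-grown young soybean plants were sprayed with compound (2% DMSO/acetone, emulsifier in water) at the stated rate. One day later they were inoculated with 2×10^5 P. pachyrhizi inoculum and held at 22-24 °C, 80-90% relative humidity for disease development.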

[12] = system: Fusarium culmorum; experiment: Fusarium culmorum test on wheat, preventive, greenhouse; type: in vivo; details: preventive spray on wheat, inoculated one day after treatment, read-out: control (efficacy, disease severity) compared to the untreated check
Experimental: The respective compound was dissolved in 2% dimethyl sulfoxide/acetone and then mixed with water containing an emulsifier to a calibrated spray volume of 30 mL. Each spray solution was poured into a spray bottle for further application.
To test the preventive activity of a compound, healthy young wheat plants, raised in the greenhouse, were sprayed with the active compound preparation at the stated application rate inside the spray cabinets using hollow cone nozzles. One day after the treatment, the plants were inoculated with a spore suspension containing 2×10^6 Fusarium culmorum inoculum. The inoculated plants were then kept in a greenhouse chamber at 24° C. temperature and 80-90% relative humidity for disease expression.
as §1

CC(C)CC(C)(Cc1ccccc1)NC(=O)c1cnc2cc[nH]c2c1 (stereo not drawn) [Compound 73, N-(2,4-dimethyl-1-phenylpentan-2-yl)-1H-pyrrolo[3,2-b]pyridine-6-carboxamide]
≥ 70%: inhibition of growth at 300 ppm [1] | inhibition of growth at 300 ppm [2] | inhibition of growth at 300 ppm [3] | inhibition of growth at 300 ppm [4] | inhibition of growth at 300 ppm [5] | inhibition of growth at 300 ppm [6] | pest or weed control at 500 ppm [7] | pest or weed control at 500 ppm [8] | pest or weed control at 500 ppm [9]

CC(c1ccccc1F)C(C)(C)NC(=O)c1cnc2c(ccn2C)c1 (stereo not drawn) [Compound 3, N-(3-(2-fluorophenyl)-2-methylbutan-2-yl)-1-methyl-1H-pyrrolo[2,3-b]pyridine-5-carboxamide]
≥ 70%: inhibition of growth at 300 ppm [10] | inhibition of growth at 300 ppm [2] | pest or weed control at 500 ppm [8] | pest or weed control at 500 ppm [9]

CC(Cc1ccccc1)C(C)(C)NC(=O)c1cnc2c(ccn2C)c1 (stereo not drawn) [Compound 80, N-(2,3-dimethyl-4-phenylbutan-2-yl)-1-methyl-1H-pyrrolo[2,3-b]pyridine-5-carboxamide]
≥ 70%: inhibition of growth at 300 ppm [2] | inhibition of growth at 300 ppm [4] | inhibition of growth at 300 ppm [5] | pest or weed control at 500 ppm [8] | pest or weed control at 500 ppm [9]

CC(C)(NC(=O)c1cnc2ccsc2c1)C(O)c1ccccc1 (stereo not drawn) [Compound 118, N-(1-hydroxy-2-methyl-1-phenylpropan-2-yl)thieno[3,2-b] pyridine-6-carboxamide]
≥ 70%: inhibition of growth at 300 ppm [1] | inhibition of growth at 300 ppm [4] | inhibition of growth at 300 ppm [6] | pest or weed control at 500 ppm [8]

Cn1cc(Cl)c2cc(C(=O)NC(C)(C)COC(=O)c3cccc(F)c3)cnc21 [Compound 153, 2-(3-chloro-1-methyl-1H-pyrrolo[2,3-b]pyridine-5-carboxamido)-2-methylpropyl 3-fluorobenzoate]
≥ 70%: inhibition of growth at 300 ppm [4] | pest or weed control at 500 ppm [7] | pest or weed control at 500 ppm [8]

Cc1ccccc1C(=O)OCC(C)(C)NC(=O)c1cnc2c(c1)CCCC2 [Compound 151, 2-methyl-2-(5,6,7,8-tetrahydroquinoline-3-carboxamido)propyl 2-methylbenzoate]
≥ 70%: inhibition of growth at 300 ppm [4] | pest or weed control at 500 ppm [7] | pest or weed control at 500 ppm [8] | pest or weed control at 500 ppm [11]

Cc1cc2cc(C(=O)NC(C)(C)Cc3ccccc3F)cnc2n1C [Compound 103, N-(1-(2-fluorophenyl)-2-methylpropan-2-yl)-1,2-dimethyl-1H-pyrrolo[2,3-b]pyridine-5-carboxamide]
≥ 70%: inhibition of growth at 300 ppm [2] | inhibition of growth at 300 ppm [4] | pest or weed control at 500 ppm [12] | pest or weed control at 500 ppm [11]

C=C(C)CC(C)(COc1ccc(F)cc1)NC(=O)c1cc2cc[nH]c2nc1C (stereo not drawn) [Compound 128, N-(1-(4-fluorophenoxy)-2,4-dimethylpent-4-en-2-yl)-6-methyl-1H-pyrrolo[2,3-b]pyridine-5-carboxamide]
≥ 70%: pest or weed control at 500 ppm [7] | pest or weed control at 500 ppm [8]

C=C(C)CC(C)(COc1ccccc1F)NC(=O)c1cnc2c(ccn2C)c1 (stereo not drawn) [Compound 155, N-(1-(2-fluorophenoxy)-2,4-dimethylpent-4-en-2-yl)-1-methyl-1H-pyrrolo[2,3-b]pyridine-5-carboxamide]
≥ 70%: inhibition of growth at 300 ppm [2] | inhibition of growth at 300 ppm [4] | inhibition of growth at 300 ppm [5] | pest or weed control at 500 ppm [12] | pest or weed control at 500 ppm [11]

Cn1ccc2cc(C(=O)NC(C)(C)Cc3cccc(F)c3)cnc21 [Compound 21, N-(1-(3-fluorophenyl)-2-methylpropan-2-yl)-1-methyl-1H-pyrrolo[2,3-b]pyridine-5-carboxamide]
≥ 70%: inhibition of growth at 300 ppm [10] | inhibition of growth at 300 ppm [2] | pest or weed control at 500 ppm [8] | pest or weed control at 500 ppm [11]

CC(C)(Cc1ccccc1)NC(=O)c1cnc2ccsc2c1 [Compound 30, N-(2-methyl-1-phenylpropan-2-yl)thieno[3,2-b] pyridine-6-carboxamide]
≥ 70%: inhibition of growth at 300 ppm [10] | inhibition of growth at 300 ppm [3] | pest or weed control at 500 ppm [7] | pest or weed control at 500 ppm [8]

COc1nc2c(ccn2C)cc1C(=O)NC(C)(Cc1ccccc1)CC(C)C (stereo not drawn) [Compound 92, N-(2,4-dimethyl-1-phenylpentan-2-yl)-6-methoxy-1-methyl-1H-pyrrolo[2,3-b]pyridine-5-carboxamide]
≥ 70%: inhibition of growth at 300 ppm [3] | pest or weed control at 500 ppm [12] | pest or weed control at 500 ppm [7]

Cn1ccc2cc(C(=O)NC(C)(C)Cc3ccc(OC(F)(F)F)cc3)cnc21 [Compound 19, 1-methyl-N-(2-methyl-1-(4-(trifluoromethoxy)phenyl)propan-2-yl)-1H-pyrrolo[2,3-b]pyridine-5-carboxamide]
≥ 70%: pest or weed control at 500 ppm [7] | pest or weed control at 500 ppm [8] | pest or weed control at 500 ppm [11]

CCC(O)(CC)C(NC(=O)c1cnc2ccsc2c1)c1ccc(F)cc1 (stereo not drawn) [Compound 132, N-(2-ethyl-1-(4-fluorophenyl)-2-hydroxybutyl)thieno [3,2-b]pyridine-6-carboxamide]
≥ 70%: inhibition of growth at 300 ppm [5] | pest or weed control at 500 ppm [8] | pest or weed control at 500 ppm [11]

Cc1cc2cc(C(=O)NC(C)(C)Cc3ccc(Cl)cc3)cnc2n1C [Compound 101, N-(1-(4-chlorophenyl)-2-methylpropan-2-yl)-1,2-dimethyl-1H-pyrrolo[2,3-b]pyridine-5-carboxamide]
≥ 70%: inhibition of growth at 300 ppm [1] | inhibition of growth at 300 ppm [2] | inhibition of growth at 300 ppm [4] | inhibition of growth at 300 ppm [6] | pest or weed control at 500 ppm [12] | pest or weed control at 500 ppm [11]
